The results in this text go back to patent US20230079439A1, “Compositions and Methods for Enhancing Beta Cell Maturation, Health and Function” (THE REGENTS OF THE UNIVERSITY OF CALIFORNIA, priority 2016, published 2023).

Assay [1] has as its system INS-1E cells. Description: Cell counting (trypan blue) / proliferation and cluster formation. The assay is classed as cell-based, rat. The conditions noted are these: 24 h. On the procedure:
(§1) FIG. 7, comprising FIG. 7A through FIG. 7G, depicts the evaluation of the biological activity of HSA-28P in INS-1E cells. FIG. 7A depicts dose-response analysis of the effect of HSA-28P on the rate of insulin secretion in INS-1E cells. The INS-1E cells were grown and trypsinized as described in Methods. Subsequently, cells were mixed with the indicated concentrations of HSA-28P (red columns), non-relevant peptide nanoparticles (NRPNP, green columns), and naked nanoparticles (NP, blue columns) and were seeded in 12-well plates. After 24 h the cells were taken to a GSIS in the presence of 2.5 mM (weak color bars) or 16.7 mM (strong color bars) glucose. FIG. 7B depicts time-course analysis of the effect of HSA-28P on the rate of insulin secretion in INS-1E cells. The INS-1E cells were prepared for the experiment as described above with 1.34 μM of both HSA-28P or NRPNP, and 0.76 μg/ml of NP. After incubation for the time indicated in the graph, the cells were taken to a GSIS as described in Methods. FIG. 7C depicts the measurement of insulin content. The RIA-assay was performed for INS-1E lysates. […] INS-1E cells were treated as described in Panel D. Cells were detached by trypsin and counted as described in Methods and then were visualized with a Cells Sense Live Imaging microscope. […]
Cells were detached by trypsin and colored by Trypan blue. Only uncolored cells were counted. […]

The subject of assay [2] is INS-1E cells. Kind of assay: MTT cell viability under glucose oxidase-induced oxidative stress. Format: cell-based, rat. On the procedure:
as §1, with “NP.” for “NP. After incubation for the time indicated in the graph, the cells were taken to a GSIS as described in Methods. FIG. 7C depicts the measurement of insulin content. The RIA-assay was performed for INS-1E lysates.”
Briefly, cells were incubated with MTT (2 mg/mL) in growth medium for 30 min at 37° C. […] Absorbance at 570 nm was measured in a SpectraMax M5 spectrophotometer (Sunnyvale, Calif., USA). The obtained results were normalized by total protein content in culture cells, which was measured using the Bradford reagent. […]

Ends that are not written are not given here.

Turning to “HSA-112: HSA-28 dimer formed by bridging two HSA-28 monomers via amide bond formation with active ester PEG2,000 (QQGEFLNYD-NH2; not fully specified (N-terminus); also: dimer of two HSA-28 monomers bridged via amide bonds with active ester PEG2000)”, the “amount of cells / proliferation rate” value with INS-1E cells [1] is on record as “higher than that in the control dishes”. Moreover, the “cell protective effect compared with trolox” value in the assay with INS-1E cells [2] (glucose oxidase-induced oxidative stress) is given as “almost identical to that of the well-known antioxidant (trolox)”. The “effect on cell viability under oxidative stress” value in the assay with INS-1E cells [2] (glucose oxidase/glucose system, 24 h) is on record as “cytoprotective effect”.
